We go through 3 molecules from patent publication US20200190073A1, “SUBSTITUTED SUCCINIMIDE DERIVATIVES AS PESTICIDES” (BASF SE, priority 2017, published 2020).

Holding throughout (assay type): in vivo
Experiment [1] relates to Orchid Thrips (Dichromothrips Corbetti). Briefly: CE.3 Orchid thrips, comparative test. To be noted: 96 h, read-out: % mortality in comparison to untreated controls. How it is done:
(§1) The tables show % mortality in comparison to untreated controls.
CE.3 Orchid Thrips (Dichromothrips Corbetti)
Dichromothrips corbetti adults used for bioassay were obtained from a colony maintained continuously under laboratory conditions. For testing purposes, the test compound was diluted to a concentration of 300 ppm (wt compound: vol diluent) in a 1:1 mixture of acetone:water (vol:vol), plus 0.01% vol/vol Kinetic® surfactant.
Thrips potency of each compound was evaluated by using a floral-immersion technique. Plastic petri dishes were used as test arenas. All petals of individual, intact orchid flowers were dipped into treatment solution and allowed to dry. Treated flowers were placed into individual petri dishes along with 10-15 adult thrips. The petri dishes were then covered with lids. All test arenas were held under continuous light and a temperature of about 280C for duration of the assay. After 4 days, the numbers of live thrips were counted on each flower, and along inner walls of each petri dish. The level of thrips mortality was extrapolated from pre-treatment thrips numbers.

The subject of experiment [2] is Rice Brown Plant Hopper (Nilaparvata lugens). Description: CE.2 Rice brown plant hopper, comparative test. The note with it: read-out: % mortality in comparison to untreated controls. The method, then:
as §1
CE.2 Rice Brown Plant Hopper (Nilaparvata lugens)
Rice seedlings were cleaned and washed 24 hours before spraying. The active compounds were formulated in 50:50 acetone:water (vol:vol) and 0.1% vol/vol surfactant (EL 620) was added. Potted rice seedlings were sprayed with 5 ml test solution, air dried, placed in cages and inoculated with 10 adults. Treated rice plants were kept at about 28-29° C. and relative humidity of about 50-60%. Percent mortality was recorded after 72 hours.

Experiment [3] deals with Silverleaf Whitefly (Bemisia argentifolii). Description: CE.4 Silverleaf whitefly, comparative test. To be noted: 72 h, read-out: % mortality in comparison to untreated controls. The method, then: as §1
CE.4 Silverleaf Whitefly (Bemisia argentifolii)
The active compounds were formulated in 50:50 acetone:water (vol:vol) and 100 ppm Kinetica™ surfactant.
Selected cotton plants were grown to the cotyledon state (one plant per pot). The cotyledons were dipped into the test solution to provide complete coverage of the foliage and placed in a well-vented area to dry. Each pot with treated seedling was placed in a plastic cup and 10 to 12 whitefly adults (approximately 3-5 day old) were introduced. The insects were collected using an aspirator and a Tygon® tubing connected to a barrier pipette tip. The tip, containing the collected insects, was then gently inserted into the soil containing the treated plant, allowing insects to crawl out of the tip to reach the foliage for feeding. The cups were covered with a reusable screened lid. Test plants were maintained in the holding room at about 25° C. and about 20-40% relative humidity for 3 days avoiding direct exposure to the fluorescent light (24 hour photoperiod) to prevent trapping of heat inside the cup. Mortality was assessed 3 days after treatment of the plants.

In experiment [4] the test system is Cowpea Aphid (Aphis Craccivora). Briefly: CE.1 Cowpea aphid, comparative test. The note with it: read-out: % mortality in comparison to untreated controls. How it is done: as §1
CE.1 Cowpea Aphid (Aphis Craccivora)
Potted cowpea plants colonized with approximately 100-150 aphids of various stages were sprayed after the pest population has been recorded. Population reduction was assessed after 24, 72, and 120 hours.

Experiment [5] deals with Rice Green Leafhopper (Nephotettix virescens). Description: CE.5 Rice green leafhopper, comparative test. To be noted: 3 ppm, after 72 hours, read-out: % mortality in comparison to untreated controls. How it is done: as §1
CE.5 Rice Green Leafhopper (Nephotettix virescens)
Rice seedlings were cleaned and washed 24 hours before spraying. The active compounds were formulated in 50:50 acetone:water (vol:vol), and 0.1% vol/vol surfactant (EL 620) was added. Potted rice seedlings were sprayed with 5 ml test solution, air dried, placed in cages and inoculated with 10 adults. Treated rice plants were kept at about 28-29° C. and relative humidity of about 50-60%. Percent mortality was recorded after 72 hours.

Read-outs that look alike come from different tables or passages of the source.

In general, mortality refers to the percentage killed. With `Cc1cc(C2=NOC(c3cc(Cl)cc(Cl)c3)(C(F)(F)F)C2)ccc1C(=O)NC1CCN(CC(F)(F)F)C1=O` (stereo not shown) [No. 5-405 of US 20070066617, reference compound], the mortality at 10 ppm in experiment [1] was 0%; in experiment [2] (72 h), 0%; in experiment [3] it was 25%; in experiment [4] it was 25%.
As to `Cc1cc(C2=NSC(c3cc(Cl)cc(Cl)c3)(C(F)(F)F)C2)ccc1C(=O)NC1CCN(CC(F)(F)F)C1=O` (stereo not shown) [No. 2-195 of WO 2013/092943, reference compound], the mortality at 10 ppm came to 0% in experiment [1] (10 ppm, after 4 days) and 25% in experiment [2] (10 ppm, after 72 hours). Also, the mortality at 3 ppm in experiment [5] turned out to be 0%. The mortality at 300 ppm in experiment [4] (at 300 ppm, sprayed cowpea plants) stood at 0%.
Consider `CCN1CCC(NC(=O)c2ccc(C3=CCC(c4ccc(F)c(Cl)c4)(C(F)(F)F)C3)cc2Cl)C1=O` (stereo not shown) [No. I-9 of WO 2017/016883], for which the mortality at 10 ppm amounted to 0% in experiment [1] (10 ppm, after 4 days); 25% in experiment [2] (10 ppm, after 72 hours); 25% in experiment [3] (10 ppm, 3 days after treatment); 25% in experiment [4] (10 ppm, sprayed cowpea plants). Moreover, the mortality at 3 ppm in experiment [5] was found to be 0%.
